Assay results as given in patent US20080090916A1, “Compounds for Treating Urinary Incontinence” (priority 2005, published 2008).

Experiments:
[1] = Influence of intra-anally applied 1R,2S-methoxamine gel on micturition in subjects; type: in vivo; conditions: experimental studies with appreciable systemic levels
Procedure: The study was conducted according to the following protocol:
• a) 1% by weight 1R,2S-methoxamine in 4% w/w gel • b) 3% by weight 1R,2S-methoxamine in 4% w/w gel • The 4% w/w gel comprises 4 g of hydroxypropylmethyl cellulose in 96 ml of 0.5M acetate buffer. 1% by weight 1R,2S-methoxamine in 4% w/w gel comprises 1 g of 1R,2S-methoxamine in 99 g of the 4% gel. Investigation
In a study for other purposes including 44 subjects, each subject had either the 3% methoxamine gel or the 1% methoxamine gel applied intra-anally. About 1 g of gel was used.

[2] = tested on: mini pigs; conditions: 1 mg/kg i.v., at maximum effect; cited from earlier work
[3] = tested on: vesicourethral junction sphincter muscle strips; test: Enzyme assay: regeneration of 1R,2S-methoxamine from compound (Ia) by gamma glutamyl transferase, reaction product tested on muscle strips; type: cell-based, pig; conditions: 0.3 mM
Procedure: Regeneration of 1R,2S-methoxamine from the Compound of Formula (Ia)
Into a clean glass vial (1 ml volume) the following reaction mixtures were pipetted as follows:
200 μl compound of formula (Ia), 10 mg/ml in Tris buffer (mol. wt. 376, therefore=2 mg compound of formula (Ia)=5.3 μMoles), 100 μl solution E
Reaction product of groups 1, 2 and 3 were only tested for biological activity after 30 minutes of incubation period at 37° C. while that of group 4 were also tested after, 10, 30 and 60 minutes of incubation period. A 5 h group of which reaction mixture indicated in group four were diluted by two fold after 30 min incubation were also tested for biological activity.
Gamma glutamyl transferase, 2-1-18 porcine kidney was purchased from Calzyme Labs San Luis Obispo, Calif. 93401 USA, glyclglycine was obtained from Acros Organics, New Jersey, USA while L-glutamic acid 5-(4-nitroanilide) was purchased from Fluka Chemie Switzerland.
The reaction mixture was incubated in HOT BOX oven, size one incubator made by Gallenpark, England, while the absorbance was measured (@λmax 405 nm), using Anthos 2020 UV/VIS spectrophotometer.
Representative traces of pig vesicourethral junction sphincter muscle response to various enzyme reaction products are shown in FIG. 3 and representative traces of pig proximal sphincter muscle response to various enzyme reaction products are shown in FIG. 4. The enzyme reaction products tested are as follows: • FIG. 3a-50 mM Tris HCl buffer; • FIG. 3b-50 mM Tris HCl buffer, gamma glutamyl transferase. • FIG. 3c-50 mM Tris HCl buffer, MgCl2.6H2O, glycylglycine, compound of formula (Ia); • FIG. 4a-50 mM Tris HCl buffer, MgCl2.6H2O, glycylglycine, gamma glutamyl transferase, compound of formula (Ia); • FIG. 4b-0.3 mM 1R,2S-methoxamine.

[4] = tested on: pig vesicourethral junction sphincter muscle; test: Functional assay: dose response on isolated pig vesicourethral junction sphincter muscle strips; type: cell-based; conditions: for EC50: Sus scrofa, contraction, from dose response curve, read-out: relative potencies (EC50); for maximum response: mean ±SEM; for contractile response of muscle strip (representative traces): compound alone, FIG. 1
Description: Samples of female white landrace pig bladder and urethra were obtained from freshly slaughtered pigs at the local abattoir. The pigs were killed by exsanguination after initial stunning by electric shock. The anus, rectum, bladder and urethra were then excised en bloc during evisceration and immediately transferred into pre oxygenated Krebs' solution (1 mmol/l: NaCl 120, KCl 5.9 NaHCO3 15.4, CaCl2 2.5, MgCl2 1.2, glucose 11.5) and transported to the laboratory, where they were stored in the refrigerator (at 4° C.) until ready to be processed.
The location of the vesicourethral junction sphincter was then identified. The bladders were inflated via a transurethral catheter with 200 ml. fluid. The fluid was then gently squeeze towards the outlet, until a sharp narrowing of the bladder base becomes apparent (Dass, 1997; Dass et al., 2001). Tissue sections from this region were then denuded of urothelium, and dissected transversely into a number of muscle strips.
Muscle strips measuring about 5-6 mm by 2-3 mm with an average weight of 7 mg were dissected, fine (5/0) silk threads were tied at each end of the strips and each strip mounted vertically in a 0.2 ml capacity, perspex organ bath between two recessed platinum electrodes through which electrical field stimulation (EFS) could be delivered. Strips were constantly superfused with Krebs' solution (37° C.) at a rate of 1.5 ml 1 min. The Krebs' solutions were gassed with 97% oxygen 3% carbon dioxide. Drugs were delivered by substituting drug containing solutions of the desired concentration for Krebs' solutions.
The apparatus comprised of six organ baths in parallel allowing the study of six strips simultaneously as described by Brading and Sibley (1983). Each channel was calibrated with a 1 g weight attached to the transducer before each experiment, and tissues were tensioned to 1 g after mounting. Isomeric tension generated by the strips was measured using isomeric force displacement transducers, Pioden Dynamometer UFI transducers (Pioden Controls Ltd, Canterbury, Kent) or AD Instruments MLT050/D force transducers, amplified (Harvard Transducer/Amplifier, Harvard Apparatus Ltd, Edenbridge, Kent) and analyzed using MacLab Data Acquisition system (AD Instruments, Sydney, Australia) or AD Instruments OCTAL Bridge Amplifier connected to Power Lab/8SP (AD Instruments, Sydney, Australia) and Chart v3.6 software (Macintosh) or Chart v5 (PC).
Dose response curves for the various compounds were constructed by testing one drug on a pair of strip in each experiment. The preparations were subjected to a sequence of successive 10 s […] applications of increasing doses of drugs with intervening washout periods.
1R,2S-methoxamine hydrochloride, the compound of formula (Ia) and the compound of formula (III) were made available by Norgine International Research, Middlesex.
Responses were reported as either grams of tension or % maximum force and given as mean values ±SEM. EC50 values were used as a measure of potency. The EC50 values were measured from the graph of dose response curve using the kaleidograph graphical software applications. Results were assessed using statistical analysis software, StatView 5.0 (SAS Institute Inc.) using ANOVA followed by Fisher's test. Significant difference between data was assumed with p<0.05.

COc1ccc(OC)c([C@@H](O)[C@H](C)N)c1 [1R,2S-methoxamine, (1R,2S)-2-amino-1-(2,5-dimethoxyphenyl)propan-1-ol]
unwanted systemic side effects [1]: elevation of blood pressure
rise in diastolic pressure [2]: 57%
rise in systolic pressure [2]: 23%
less effective than Mg^2+-glycylglycine-compound of formula (Ia)-enzyme mixture [3]: 29%
contractile (bladder) response ([3]; no enzyme): 1.15 g
EC50 [4]: 56.2 µM
maximum response ([4]; at a concentration of 10^−3M): 1.12 g
contractile response of muscle strip (representative traces) [4]: pronounced well defined contractile response

COc1ccc(OC)c([C@@H](O)[C@H](C)NC(=O)[C@@H](N)CCC(=O)O)c1 [compound of formula (III), (S)-4-Amino-4-[(1S,2R)-2-(2,5-dimethoxyphenyl)-2-hydroxy-1-methyl-ethylcarbamoyl]butyric acid]
biological activity retained relative to 1R,2S-methoxamine [4]: approximately 10%
EC50 [4]: 495 µM
contractile response of muscle strip (representative traces) [4]: well defined contractile response
maximum response ([4]; observed at 10^−2M): 1.33 g
